# Experimental data reported in patent publication US12258329B2 (Merck Sharp & Dohme LLC, priority 2018, dated 2025).
# Where two headings read alike, the source gives them in different places.
# Tested on: infected PBMCs (VSV-G pseudotyped HIV virus VSV-G/pNLG1-P2A-ΔEnv)
# Assay: cells
# Type: cell-based, human
# Settings: read-out: TACK EC50
Compound,"EC50 (Homo sapiens, PBMC) [µM]",EC50 [µM]
"Cc1nc[nH]c(=O)c1Cn1cnc(C(F)(F)C(F)F)c(Oc2cc(C(F)F)cc(C#N)c2C)c1=O [Example 79, 5-(difluoromethyl)-2-methyl-3-((1-((4-methyl-6-oxo-1,6-dihydropyrimidin-5-yl)methyl)-6-oxo-4-(1,1,2,2-tetra-fluoroethyl)-1,6-dihydropyrimidin-5-yl)oxy)benzonitrile]",0.46,–
"Cc1nc(C)c(Cn2cnc(C(C)F)c(Oc3cc(C(F)F)cc(C#N)c3C)c2=O)c(=O)[nH]1 (single isomer, unassigned) [Example 28]",0.208,–
"COC(=O)CCc1nc(C)c(Cn2cnc(C(F)(F)C(F)(F)F)c(Oc3cc(Cl)cc(C#N)c3F)c2=O)c(=O)[nH]1 [Example 56, Methyl 3-(5-((5-(5-chloro-3-cyano-2-fluorophenoxy)-6-oxo-4-(perfluoroethyl)pyrimidin-1 (6H)-yl)methyl)-4-methyl-6-oxo-1,6-dihydropyrimidin-2-yl)propanoate]",0.161,–
"Cc1nc(C)c(Cn2cnc(C(C)F)c(Oc3c(C)cc(C#N)cc3C)c2=O)c(=O)[nH]1 (single isomer, unassigned) [Example 43, (S) or (R)-4-((1-((2,4-dimethyl-6-oxo-1,6-dihydropyrimidin-5-yl)methyl)-4-(1-fluoroethyl)-6-oxo-1,6-dihydropyrimidin-5-yl)oxy)-3,5-dimethylbenzonitrile]",0.438,–
"Cc1nc(C)c(Cn2cnc(C(C)(F)F)c(Oc3c(C)cc(C#N)cc3Cl)c2=O)c(=O)[nH]1 [Example 12, 3-chloro-4-((4-(1,1-difluoroethyl)-1-((2,4-dimethyl-6-oxo-1,6-dihydropyrimidin-5-y1)methyl)-6-oxo-1,6-dihydropyrimidin-5-yl)oxy)-5-methylbenzonitrile]",0.2,–
"CCc1cc(C#N)c(F)c(Oc2c(C(F)(F)C(F)F)ncn(Cc3c(C)nc(C)[nH]c3=O)c2=O)c1 [Example 42, 3-((1-((2,4-dimethyl-6-oxo-1,6-dihydropyrimidin-5-yl)methyl)-6-oxo-4-(1,1,2,2-tetrafluoroethyl)-1,6-dihydropyrimidin-5-yl)oxy)-5-ethyl-2-fluorobenzonitrile]",0.308,–
"CCc1nc(C)[nH]c(=O)c1Cn1cnc(C(F)(F)C(F)(F)F)c(Oc2cc(C(F)F)cc(C#N)c2C)c1=O [Example 63, 5-(difluoromethyl)-3-((1-((4-ethyl-2-methyl-6-oxo-1,6-dihydropyrimidin-5-yl)methyl)-6-oxo-4-(perfluoroethyl)-1,6-dihydropyrimidin-5-yl)oxy)-2-methylbenzonitrile]",0.277,–
"Cc1nc(N)c(Cn2cnc(C(F)(F)C(F)(F)F)c(Oc3cc(Cl)cc(C#N)c3F)c2=O)c(=O)[nH]1 [Example 38, 3-((1-((4-amino-2-methyl-6-oxo-1,6-dihydropyrimidin-5-yl)methyl)-6-oxo-4-(perfluoroethyl)-1,6-dihydropyrimidin-5-yl)oxy)-5-chloro-2-fluorobenzonitrile]",0.481,–
"Cc1nc(C(C)O)[nH]c(=O)c1Cn1cnc(C(F)(F)C(F)F)c(Oc2cc(C(F)F)cc(C#N)c2C)c1=O (single isomer, unassigned) [Example 54, 5-(difluoromethyl)-3-((1-((2-(1-hydroxyethyl)-4-methyl-6-oxo-1,6-dihydropyrimidin-5-yl)methyl)-6-oxo-4-(1,1,2,2-tetrafluoroethyl)-1,6-dihydropyrimidin-5-yl)oxy)-2-methylbenzonitrile]",–,0.213
"Cc1nc(C)c(Cn2cnc(C(C)(F)F)c(Oc3cc(C(F)F)cc(C#N)c3C)c2=O)c(=O)[nH]1 [Example 6, 3-((4-(1,1-difluoroethyl)-1-((2,4-dimethyl-6-oxo-1,6-dihydropyrimidin-5-y1)methyl)-6-oxo-1,6-dihydropyrimidin-5-yl)oxy)-5-(difluoromethyl)-2-methylbenzonitrile]",0.201,–
"Cc1nc(C)c(Cn2cnc(C(F)(F)F)c(Oc3cc(Cl)cc(C#N)c3F)c2=O)c(=O)[nH]1 [Example 92, 5-chloro-3-((1-((2,4-dimethyl-6-oxo-1,6-dihydropyrimidin-5-yl)methyl)-6-oxo-4-(trifluoromethyl)-1,6-dihydropyrimidin-5-yl)oxy)-2-fluorobenzonitrile]",0.284,–
"COc1c(C#N)cc(C(F)F)cc1Oc1c(C(C)(F)F)ncn(Cc2c(C)nc(C)[nH]c2=O)c1=O [Example 9, 3-((4-(1,1-difluoroethyl)-1-((2,4-dimethyl-6-oxo-1,6-dihydropyrimidin-5-y1)methyl)-6-oxo-1,6-dihydropyrimidin-5-yl)oxy)-5-(difluoromethyl)-2-methoxybenzonitrile]",0.287,–
"3-((4-(1, 1-difluoroethyl)-1-((2,4- dimethyl-6-oxo-1,6-dihydropyrimidin- 5-y1)methyl)-6-oxo-1,6- dihydropyrimidin-5-yl)oxy)-2,4,5- trifluorobenzonitrile [Example 14]",–,0.343
"COc1c(C#N)cc(C(F)F)cc1Oc1c(C(F)(F)C(F)F)ncn(Cc2c(C)nc(C)[nH]c2=O)c1=O [Example 10, 5-(difluoromethyl)-3-((1-((2,4-dimethyl-6-oxo-1,6-dihydropyrimidin-5-y1)methyl)-6-oxo-4-(1,1,2,2-tetrafluoroethyl)-1,6-dihydropyrimidin-5-y1)oxy)-2-methoxybenzonitrile]",0.146,–
"Cc1nc(C)c(Cn2cnc(C(F)(F)C(F)(F)F)c(Oc3cc(Cl)cc(C#N)c3C)c2=O)c(=O)[nH]1 [Example 72, 5-chloro-3-((1-((2,4-dimethyl-6-oxo-1,6-dihydropyrimidin-5-yl)methyl)-6-oxo-4-(perfluoroethyl)-1,6-dihydro-pyrimidin-5-yl)oxy)-2-methylbenzonitrile]",0.377,–
"Cc1nc(C(F)F)c(Cn2cnc(C(F)(F)C(F)(F)F)c(Oc3cc(C(F)F)cc(C#N)c3C)c2=O)c(=O)[nH]1 [Example 65, 5-(difluoromethyl)-3-((1-((4-(difluoromethyl)-2-methyl-6-oxo-1,6-dihydropyrimidin-5-yl)methyl)-6-oxo-4-(perfluoroethyl)-1,6-dihydropyrimidin-5-yl)oxy)-2-methylbenzonitrile]",0.382,–
"Cc1nc(C)c(Cn2cnc(C(F)(F)C(F)(F)F)c(Oc3cccc(C#N)c3F)c2=O)c(=O)[nH]1 [Example 85, 3-((1-((2,4-dimethyl-6-oxo-1,6-dihydropyrimidin-5-yl)methyl)-6-oxo-4-(perfluoroethyl)-1,6-dihydropyrimidin-5-yl)oxy)-2-fluorobenzonitrile]",0.441,–
Cc1nc(C)c(Cn2cnc(C(F)(F)C(F)(F)F)c(Oc3cc(C#N)cc(C(F)F)c3)c2=O)c(=O)[nH]1 [Example 84],0.291,–
"COc1c(C#N)cc(C(F)F)cc1Oc1c(C(C)F)ncn(Cc2c(C)nc(C)[nH]c2=O)c1=O (single isomer, unassigned) [Example 35]",–,0.351
"Cc1nc(C)c(Cn2cnc(C(C)(F)F)c(Oc3cc(Cl)cc(C#N)c3F)c2=O)c(=O)[nH]1 [Example 22, 5-Chloro-3-((4-(1,1-difluoroethyl)-1-((2,4-dimethyl-6-oxo-1,6-dihydropyrimidin-5-yl)methyl)-6-oxo-1,6-dihydropyrimidin-5-yl)oxy)-2-fluorobenzonitrile]",0.181,–
"Cc1cc(C#N)c(F)c(Oc2c(C(F)(F)C(F)F)ncn(Cc3c(C)nc(C)[nH]c3=O)c2=O)c1 [Example 40, 3-((1-((2,4-dimethyl-6-oxo-1,6-dihydropyrimidin-5-yl)methyl)-6-oxo-4-(1,1,2,2-tetrafluoroethyl)-1,6-dihydropyrimidin-5-yl)oxy)-2-fluoro-5-methylbenzonitrile]",0.198,–
"Cc1nc(C(C)O)[nH]c(=O)c1Cn1cnc(C(F)(F)C(F)F)c(Oc2cc(C(F)F)cc(C#N)c2C)c1=O (single isomer, unassigned) [Example 53, 5-(difluoromethyl)-3-((1-((2-(1-hydroxyethyl)-4-methyl-6-oxo-1,6-dihydropyrimidin-5-yl)methyl)-6-oxo-4-(1,1,2,2-tetrafluoroethyl)-1,6-dihydropyrimidin-5-yl)oxy)-2-methylbenzonitrile]",0.392,–
"Cc1nc(C)c(Cn2cnc(C(C)F)c(Oc3c(C)cc(C#N)cc3Cl)c2=O)c(=O)[nH]1 (single isomer, unassigned) [Example 18, (S) or (R)-3-chloro-4-((1-((2,4-dimethyl-6-oxo-1,6-dihydropyrimidin-5-y1)methyl)-4-(1-fluoroethyl)-6-oxo-1,6-dihydropyrimidin-5-yl)oxy)-5-methylbenzonitrile]",0.129,–
"Cc1nc(C)c(Cn2cnc(C(C)F)c(Oc3cc(Cl)cc(C#N)c3Cl)c2=O)c(=O)[nH]1 (single isomer, unassigned) [Example 34, (S) or (R)-2,5-dichloro-3-((1-((2,4-dimethyl-6-oxo-1,6-dihydropyrimidin-5-yl)methyl)-4-(1-fluoroethyl)-6-oxo-1,6-dihydropyrimidin-5-yl)oxy)benzonitrile]",0.474,–
"Cc1nc(C)c(Cn2cnc(C(C)F)c(Oc3cc(C(F)F)cc(C#N)c3C)c2=O)c(=O)[nH]1 (single isomer, unassigned) [Example 29]",–,0.312
"Cc1nc(C)c(Cn2cnc(C(C)(F)F)c(Oc3cc(C(F)F)cc(C#N)c3F)c2=O)c(=O)[nH]1 [Example 15, 3-((4-(1,1-difluoroethyl)-1-((2,4-dimethyl-6-oxo-1,6-dihydropyrimidin-5-yl)methyl)-6-oxo-. 1,6-dihydropyrimidin-5-yl)oxy)-5-(difluoromethyl)-2-fluorobenzonitrile]",0.245,–
"Cc1nc(C)c(Cn2cnc(C(C)F)c(Oc3cc(C(F)F)cc(C#N)c3F)c2=O)c(=O)[nH]1 (single isomer, unassigned) [Example 32, (S) or (R)-5-(difluoromethyl)-3-((1-((2,4-dimethyl-6-oxo-1,6-dihydropyrimidin-5-yl)methyl)-4-(1-fluoroethyl)-6-oxo-1,6-dihydropyrimidin-5-yl)oxy)-2-fluorobenzonitrile]",0.171,–
"Cc1nc(C)c(Cn2cnc(C(C)(F)F)c(Oc3cc(Cl)cc(C#N)c3Cl)c2=O)c(=O)[nH]1 [Example 3, 2,5-dichloro-3-((4-(1,1-difluoroethyl)-1-((2,4-dimethyl-6-oxo-1,6-dihydropyrimidin-5-yl)methyl)-6-oxo-1,6-dihydropyrimidin-5-yl)oxy)benzonitrile]",0.417,–
